According to PubChem BioAssay AID248 (DTP/NCI, 2004):
Several values for one entry are separate records, joined by “and”; a condition that tells them apart may be missing. Equal values may be shown once. Toxic doses and inconclusive results are not listed. No stated cut-off is given here; in the data, active means T/C of 150% or more; inactive means T/C below 125%.

System: L1210 leukemia ip in BDF1 mice, survival T/C
Assay: NCI In Vivo Anticancer Drug Screen. Data for tumor model L1210 Leukemia (intraperitoneal) in B6D2F1 (BDF1) mice
Details: endpoint: mean survival time, higher = longer survival
In short: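 In this screen, tumor-bearing mice given compound are compared to those given vehicle, and their survival values are reported as a treated-to-control quotient.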

[1] = dose: 100.0 mg/kg/injection, schedule: Q04DX002 (ip), vehicle: Klucel (hydroxypropylcellulose) (HPC)
[2] = dose: 200.0 mg/kg/injection, schedule: Q04DX002 (ip), vehicle: Klucel (hydroxypropylcellulose) (HPC)
[3] = dose: 400.0 mg/kg/injection, schedule: Q04DX002 (ip), vehicle: Klucel (hydroxypropylcellulose) (HPC)
[4] = dose: 50.0 mg/kg/injection, schedule: Q01DX001 (ip), vehicle: saline
[5] = dose: 100.0 mg/kg/injection, schedule: Q01DX001 (ip), vehicle: saline
[6] = dose: 200.0 mg/kg/injection, schedule: Q01DX001 (ip), vehicle: saline
[7] = dose: 400.0 mg/kg/injection, schedule: Q01DX001 (ip), vehicle: saline
[8] = dose: 100.0 mg/kg/injection, schedule: Q01DX009 (ip), vehicle: Klucel (hydroxypropylcellulose) (HPC)
[9] = dose: 200.0 mg/kg/injection, schedule: Q01DX009 (ip), vehicle: Klucel (hydroxypropylcellulose) (HPC)
[10] = dose: 400.0 mg/kg/injection, schedule: Q01DX009 (ip), vehicle: Klucel (hydroxypropylcellulose) (HPC)
[11] = dose: 50.0 mg/kg/injection, schedule: Q01DX009 (ip), vehicle: saline with Tween-80
[12] = dose: 100.0 mg/kg/injection, schedule: Q01DX009 (ip), vehicle: saline with Tween-80
[13] = dose: 200.0 mg/kg/injection, schedule: Q01DX009 (ip), vehicle: saline with Tween-80
[14] = dose: 100.0 mg/kg/injection, schedule: Q04DX003 (ip), vehicle: saline with Tween-80
[15] = dose: 200.0 mg/kg/injection, schedule: Q04DX003 (ip), vehicle: saline with Tween-80
[16] = dose: 400.0 mg/kg/injection, schedule: Q04DX003 (ip), vehicle: saline with Tween-80
[17] = dose: 100.0 mg/kg/injection, schedule: Q01DX001 (ip), vehicle: Klucel (hydroxypropylcellulose) (HPC)
[18] = dose: 200.0 mg/kg/injection, schedule: Q01DX001 (ip), vehicle: Klucel (hydroxypropylcellulose) (HPC)
[19] = dose: 400.0 mg/kg/injection, schedule: Q01DX001 (ip), vehicle: Klucel (hydroxypropylcellulose) (HPC)
[20] = dose: 100.0 mg/kg/injection, schedule: Q04DX002 (ip), vehicle: saline with Tween-80
[21] = dose: 25.0 mg/kg/injection, schedule: Q01DX009 (ip), vehicle: saline with Tween-80
[22] = dose: 100.0 mg/kg/injection, schedule: Q01DX009 (ip), vehicle: saline
[23] = dose: 12.5 mg/kg/injection, schedule: Q04DX003 (ip), vehicle: saline
[24] = dose: 100.0 mg/kg/injection, schedule: Q04DX003 (ip), vehicle: Klucel (hydroxypropylcellulose) (HPC)
[25] = dose: 200.0 mg/kg/injection, schedule: Q04DX003 (ip), vehicle: Klucel (hydroxypropylcellulose) (HPC)
[26] = dose: 400.0 mg/kg/injection, schedule: Q04DX003 (ip), vehicle: Klucel (hydroxypropylcellulose) (HPC)

Measured: T/C

COc1cccc(C(N)=O)c1
inactive: [1] 97 % of control | [2] 97 % of control | [3] 104 % of control

CCC(CC)(c1ccccc1)C(OC(N)=O)c1ccccc1 (stereo unspecified)
inactive: [4] 90 % of control | [5] 101 % of control | [6] 92 % of control | [7] 90 % of control

CCOc1ccc(/C=C2\N=C(c3ccc([N+](=O)[O-])cc3)OC2=O)cc1
inactive: [8] 97 % of control | [9] 87 % of control | [10] 94 % of control

Cc1ccc(NC2OC(CO)C(O)C(O)C2O)cc1 (stereo unspecified)
inactive: dose: 75.0 mg/kg/injection, schedule: Q01DX001 (ip), vehicle: steriod suspending solution 99 % of control | dose: 150.0 mg/kg/injection, schedule: Q01DX001 (ip), vehicle: steriod suspending solution 94 % of control | dose: 300.0 mg/kg/injection, schedule: Q01DX001 (ip), vehicle: steriod suspending solution 94 % of control

Cc1nc(N2CCCCC2)[nH]c(=O)c1CN(C)N=O
inactive: [11] 94 % of control | [12] 94 % of control | [13] 102 % of control

NC(CCl)=NCCC1=NCCN1
inactive: dose: 100.0 mg/kg/injection, schedule: Q04DX002 (ip), vehicle: saline 100 % of control | dose: 200.0 mg/kg/injection, schedule: Q04DX002 (ip), vehicle: saline 106 % of control

COC(=O)c1cc(Cl)ccc1OCC(=O)NCc1ccc(Cl)cc1
inactive: [14] 89 % of control | [15] 102 % of control | [16] 88 % of control

O=C(O)CCNc1ccc(Cl)cc1[N+](=O)[O-]
inactive: [1] 97 % of control | [2] 120 % of control

Cc1ccc(S(=O)(=O)NCc2cccc([N+](=O)[O-])c2)cc1
inactive: [17] 102 % of control | [18] 96 % of control | [19] 96 % of control

COc1ccc(C=NC2C(OC(C)=O)OC(COC(C)=O)C(OC(C)=O)C2OC(C)=O)cc1 (stereo unspecified)
inactive: [5] 98 % of control | [6] 98 % of control | [7] 98 % of control

COCCN(CCOC)C(=O)Nc1cccc(Cl)c1
inactive: [20] 90 % of control | dose: 200.0 mg/kg/injection, schedule: Q04DX002 (ip), vehicle: saline with Tween-80 100 % of control | dose: 400.0 mg/kg/injection, schedule: Q04DX002 (ip), vehicle: saline with Tween-80 106 % of control

CC(=O)N(c1ccccc1)c1ccccc1
inactive: [8] 95 % of control | [1] 91 % of control | [9] 95 % of control | [2] 98 % of control | [10] 95 % of control | [3] 112 % of control

O=[N+]([O-])c1ccc2nc[nH]c2c1
inactive: [21] 89 % of control | [11] 96 % of control

CSCC(NC(=O)OCc1ccccc1)C(=O)O (stereo unspecified)
inactive: [11] 111 % of control | [12] 111 % of control | [13] 101 % of control

O=C(c1ccc(Br)cc1)C(O)O
inactive: [22] 102 % of control | dose: 100.0 mg/kg/injection, schedule: Q04DX003 (ip), vehicle: saline 121 % of control | dose: 200.0 mg/kg/injection, schedule: Q01DX009 (ip), vehicle: saline 97 % of control | dose: 200.0 mg/kg/injection, schedule: Q04DX003 (ip), vehicle: saline 101 % of control | dose: 400.0 mg/kg/injection, schedule: Q01DX009 (ip), vehicle: saline 102 % of control | dose: 400.0 mg/kg/injection, schedule: Q04DX003 (ip), vehicle: saline 106 % of control

O=[N+]([O-])c1cc(C(F)(F)F)ccc1/C=C/c1ccccc1Br
inactive: [14] 105 % of control | [15] 97 % of control | [16] 101 % of control

CCCCCCCCCCOc1ccc2ccccc2c1
inactive: [14] 100 % of control | [15] 94 % of control | [16] 91 % of control

CCCCC(CC)CO.[Ti] (stereo unspecified)
inactive: [14] 96 % of control | [15] 96 % of control

O=C(NC1CCCCC1)Oc1c(Cl)cc(Cl)c(Cl)c1[N+](=O)[O-]
inactive: dose: 25.0 mg/kg/injection, schedule: Q04DX002 (ip), vehicle: saline with Tween-80 92 % of control | dose: 50.0 mg/kg/injection, schedule: Q04DX002 (ip), vehicle: saline with Tween-80 99 % of control | [20] 99 % of control and 114 % of control

Cc1cc(NC(=O)SCCOC(=O)COc2ccc(Cl)cc2)ccc1Cl
inactive: [12] 94 % of control | [13] 88 % of control | dose: 400.0 mg/kg/injection, schedule: Q01DX009 (ip), vehicle: saline with Tween-80 90 % of control

Nc1nc2nc(C(=O)O)cnc2c(=O)[nH]1
inactive: [23] 95 % of control | dose: 25.0 mg/kg/injection, schedule: Q04DX003 (ip), vehicle: saline 102 % of control

CCCCCCC(O)C[N+](=O)[O-] (stereo unspecified)
inactive: dose: 12.5 mg/kg/injection, schedule: Q01DX009 (ip), vehicle: saline with Tween-80 100 % of control | [21] 98 % of control | [11] 93 % of control | [14] 107 % of control | [15] 86 % of control

C=COCCN1CCN(CCCN2c3ccccc3Sc3ccc(C(F)(F)F)cc32)CC1
inactive: dose: 3.13 mg/kg/injection, schedule: Q04DX003 (ip), vehicle: saline 102 % of control | dose: 6.25 mg/kg/injection, schedule: Q04DX003 (ip), vehicle: saline 102 % of control | [23] 107 % of control

CCOC(=O)c1cc(C=O)nc2c(Cl)cc(Cl)cc12
inactive: [12] 89 % of control | [13] 92 % of control

CC1(C)OC(=O)CC1c1ccc(Cl)cc1 (stereo unspecified)
inactive: [5] 98 % of control | [6] 93 % of control | [7] 106 % of control

Cn1cnc2c1c(=N)ncn2O
inactive: dose: 100.0 mg/kg/injection, schedule: Q01DX001 (ip), vehicle: other 103 % of control | dose: 100.0 mg/kg/injection, schedule: Q04DX003 (ip), vehicle: other 107 % of control | dose: 200.0 mg/kg/injection, schedule: Q01DX001 (ip), vehicle: other 103 % of control | dose: 200.0 mg/kg/injection, schedule: Q04DX003 (ip), vehicle: other 113 % of control | dose: 400.0 mg/kg/injection, schedule: Q01DX001 (ip), vehicle: other 103 % of control | dose: 400.0 mg/kg/injection, schedule: Q04DX003 (ip), vehicle: other 113 % of control

OC(COc1c(Cl)c(Cl)c(Cl)c(Cl)c1Cl)CN1CCN(c2ccccc2Cl)CC1 (stereo unspecified)
inactive: [5] 95 % of control | [6] 92 % of control | [7] 92 % of control

COC(=O)/C(Cl)=C(\Cl)C(=O)OC
inactive: [12] 95 % of control | [24] 96 % of control | [14] 102 % of control | [15] 107 % of control

OCC[N-]CCCN=Cc1ccccc1O.OCC[N-]CCCN=Cc1ccccc1O.[Co+2]
inactive: [4] 96 % of control | [5] 100 % of control

N#CSCc1ccc(Cl)cc1
inactive: [21] 92 % of control

CC(=O)NOCc1ccc([N+](=O)[O-])cc1
inactive: [24] 95 % of control | [25] 100 % of control | [26] 97 % of control

O=[N+]([O-])c1cccc(/C=C\C=C\c2ccccc2)c1
inactive: [4] 100 % of control | [5] 103 % of control | [6] 103 % of control | [7] 94 % of control

CC(=O)OCc1cc(=O)n(C)c2c3c4c(cc12)c(C)cc(=O)n4CO3
inactive: [17] 109 % of control | [24] 104 % of control | [18] 114 % of control | [25] 117 % of control | [19] 118 % of control | [26] 123 % of control

CCCCN1CC1(C)C (stereo unspecified)
inactive: dose: 25.0 mg/kg/injection, schedule: Q01DX009 (ip), vehicle: saline 105 % of control | dose: 50.0 mg/kg/injection, schedule: Q01DX009 (ip), vehicle: saline 105 % of control | [5] 98 % of control | [22] 106 % of control
